Measurements published in paper PMC3747139 (PLoS ONE, 2013).
Where two headings read alike, the source gives them in different places. Marks after values point to notes of the source that are not given here.

What was measured:
[1] = system: A549; assay: Cell count assay (trypan blue); type: cell-based, human; conditions: for Number of viable cells after 24 h of ligand treatment: A549, 24 h; for Number of viable cells after 48 h of ligand treatment: A549, 48 h;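 for Number of viable cells after 24 h of ligand treatment: each ligand tested at its own IC50 concentration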
Procedure: (§1) Normal and tumor cell lines were seeded at 20000–40000 cells/cm^2 with 0.2 mL/cm^2 media and incubated for 48 h at 37°C, 6% CO2, 95% relative humidity. […] After 24 h and 48 h of incubation, cells were washed with 300 µl PBS or 0.02% EDTA, trypsinized, followed by harvesting at 37°C. 200 µl cell suspension was transferred into 1.5 ml microcentrifuge tube. To the cell suspension, 300 µl PBS followed by 500 µl of 0.4% trypan blue solution was added. To get the homogenised solution, the microcentrifuge tube was gently tapped for 5 min, 20 µl of cell suspension was loaded in to a chamber of the haemocytometer.

[2] = system: MCF-7; assay: Cell count assay (trypan blue); type: cell-based, human; conditions: for Number of viable cells after 24 h of ligand treatment: MCF-7, 24 h; for Number of viable cells after 48 h of ligand treatment: MCF-7, 48 h;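 for Number of viable cells after 48 h of ligand treatment: each ligand tested at its own IC50 concentration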
Procedure: as §1

[3] = system: B16F10; assay: Cell count assay (trypan blue); type: cell-based, human; conditions: for Number of viable cells after 24 h of ligand treatment: B16F10, 24 h; for Number of viable cells after 48 h of ligand treatment: B16F10, 48 h
Procedure: as §1

[4] = system: HQF DNA [d(T2AG3)4]; assay: SYBR Green melting study with HQF DNA; type: binding, human; conditions: melting temperature of HQF DNA (5 µM) in presence of 1 µM ligand
Procedure: When quadruplex DNA melts to form ssDNA structure, SG fluorescence intensity gradually reduces as SG has no binding to ssDNA. Each time, 5 µM of HQF DNA [d(T2AG3)4)], 5 µM of dsDNA (prepared by mixing equal concentration of poly-dA-dT and poly-dT-dA), 5 µM ssDNA ( poly dT alone) and 1 µM of each ligand was incubated at 4°C for 16 h, and used for melting studies. […] Affinity, stoichiometry and thermodynamic parameters for quadruplex-ligand complex were studied with 60 µM of ligand and 10 µM of HQF DNA using Microcal VP-ITC (Northampton, MA, USA). Ligand addition to G-quadruplex DNA was made every 180 seconds. Titration experiments were performed thrice and blank correction was made each time to minimize error.

[5] = Cell count assay (trypan blue); type: cell-based; parameters: concentration or dose not given beside the values; conditions: human; for viability at 24 h: read-out: Number of viable cells after 24 h of ligand treatment; for viability at 48 h: read-out: Number of viable cells after 48 h of ligand treatment
Procedure: as §1

[6] = CRL-2115 cells (normal cell line), CRL-2115, 24 h
[7] = CRL-2115 cells (normal cell line), CRL-2115, 48 h
[8] = CRL-2120 cells (normal cell line), CRL-2120, 24 h
[9] = CRL-2120 cells (normal cell line), CRL-2120, 48 h
[10] = NCM-460 cells (normal cell line), NCM-460, 24 h
[11] = NCM-460 cells (normal cell line), NCM-460, 48 h

Compound	Number of viable cells after 24 h of ligand treatment [1]	Number of viable cells after 48 h of ligand treatment [1]	Number of viable cells after 24 h of ligand treatment [2]	Number of viable cells after 48 h of ligand treatment [2]	Number of viable cells after 24 h of ligand treatment [3]	Number of viable cells after 48 h of ligand treatment [3]	Tm [4]	viability at 24 h [5, 6] [%]	viability at 48 h [5, 7] [%]	viability at 24 h [5, 8] [%]	viability at 48 h [5, 9] [%]	viability at 24 h [5, 10] [%]	viability at 48 h [5, 11] [%]
c1ccc(Cn2nnc(-c3ccccc3)c2-c2ccccc2)cc1 [Ligand L4, 1-Benzyl-4,5-diphenyl-1H-1,2,3-triazole]	+ (Viable cells in the range of 80%–90%)	++ (Viable cells in the range of 50%–60%)	++/++ (Viable cells in the range of 50%–60%)	++/++ (Viable cells in the range of 50%–60%)	++/++ (Viable cells in the range of 50%–60%)	++/++ (Viable cells in the range of 50%–60%)	32 ^o C	80 to 90	50 to 60	80 to 90	80 to 90	80 to 90	50 to 60
CCCCc1nnn(Cc2ccccc2)c1/C=C/c1ccccc1 [Ligand L5, (E)-1-Benzyl-4-butyl-5-styryl-1H-1,2,3-triazole]	+ (Viable cells in the range of 80%–90%)	++ (Viable cells in the range of 50%–60%)	++/++ (Viable cells in the range of 50%–60%)	++/++ (Viable cells in the range of 50%–60%)	++/++ (Viable cells in the range of 50%–60%)	++/++ (Viable cells in the range of 50%–60%)	33 ^o C	80 to 90	50 to 60	80 to 90	50 to 60	80 to 90	50 to 60
CCCCc1nnn(Cc2ccccc2)c1-c1cccc(O)c1 [Ligand L6, 3-(3-Benzyl-5-butyl-3H-1,2,3-triazol-4-yl)phenol]	++/++ (Viable cells in the range of 50%–60%)	++/++ (Viable cells in the range of 50%–60%)	+ (Viable cells in the range of 80%–90%)	++ (Viable cells in the range of 50%–60%)	+ (Viable cells in the range of 80%–90%)	++ (Viable cells in the range of 50%–60%)	33 ^o C	80 to 90	50 to 60	80 to 90	50 to 60	50 to 60	50 to 60
c1ccc(-c2nnn(CC3CCCCO3)c2-c2ccccc2)cc1 (stereo not shown) [Ligand L7, 4,5-Diphenyl-1-((tetrahydro-2H-pyran-2-yl)methyl)-1H-1,2,3-triazole]	+/+ (Viable cells in the range of 80%–90%)	+/+ (Viable cells in the range of 80%–90%)	+ (Viable cells in the range of 80%–90%)	++ (Viable cells in the range of 50%–60%)	+ (Viable cells in the range of 80%–90%)	++ (Viable cells in the range of 50%–60%)	29 ^o C	80 to 90	80 to 90	80 to 90	50 to 60	80 to 90	50 to 60
Oc1cccc(-c2c(-c3ccccc3)nnn2CC2CCCCO2)c1 (stereo not shown) [Ligand L8]	–	–	–	–	–	–	27 ^o C	–	–	–	–	–	–
CCOC(=O)c1nnn(Cc2ccccc2)c1-c1ccccc1 [Ligand L9, Ethyl 1-benzyl-5-phenyl-1H-1,2,3-triazole-4-carboxylate]	+ (Viable cells in the range of 80%–90%)	++ (Viable cells in the range of 50%–60%)	+/+ (Viable cells in the range of 80%–90%)	+/+ (Viable cells in the range of 80%–90%)	+ (Viable cells in the range of 80%–90%)	++ (Viable cells in the range of 50%–60%)	29 ^o C	80 to 90	50 to 60	80 to 90	80 to 90	80 to 90	80 to 90
CCOC(=O)c1nnn(Cc2ccccc2)c1/C=C/c1ccccc1 [Ligand L10, (E)-Ethyl 1-benzyl-5-styryl-1H-1,2,3-triazole-4-carboxylate]	+/+ (Viable cells in the range of 80%–90%)	+/+ (Viable cells in the range of 80%–90%)	+ (Viable cells in the range of 80%–90%)	++ (Viable cells in the range of 50%–60%)	+ (Viable cells in the range of 80%–90%)	++ (Viable cells in the range of 50%–60%)	33 ^o C	80 to 90	80 to 90	80 to 90	80 to 90	80 to 90	50 to 60
CCOC(=O)c1nnn(Cc2ccccc2)c1-c1cccc(O)c1 [Ligand L11, Ethyl 1-benzyl-5-(3-hydroxyphenyl)-1H-1,2,3-triazole-4-carboxylate]	+ (Viable cells in the range of 80%–90%)	++ (Viable cells in the range of 50%–60%)	+ (Viable cells in the range of 80%–90%)	++ (Viable cells in the range of 50%–60%)	+ (Viable cells in the range of 80%–90%)	++ (Viable cells in the range of 50%–60%)	28 ^o C	80 to 90	80 to 90	80 to 90	80 to 90	80 to 90	80 to 90
C(=C\c1c(-c2ccccc2)nnn1CC1CCCCO1)/c1ccccc1 (stereo not shown) [Ligand L12, (E)-4-Phenyl-5-styryl-1-((tetrahydro-2H-pyran-2-yl)methyl)-1H-1,2,3-triazole]	+/+ (Viable cells in the range of 80%–90%)	+/+ (Viable cells in the range of 80%–90%)	+ (Viable cells in the range of 80%–90%)	++ (Viable cells in the range of 50%–60%)	+ (Viable cells in the range of 80%–90%)	++ (Viable cells in the range of 50%–60%)	31 ^o C	80 to 90	80 to 90	80 to 90	80 to 90	80 to 90	50 to 60
Oc1cccc(-c2c(-c3ccccc3)nnn2CC2CCCCO2)c1 (stereo not shown) [Ligand L13, 3-(5-Phenyl-3-((tetrahydro-2H-pyran-2-yl)methyl)-3H-1,2,3-triazol-4-yl)phenol]	+/+ (Viable cells in the range of 80%–90%)	+/+ (Viable cells in the range of 80%–90%)	+/+ (Viable cells in the range of 80%–90%)	+/+ (Viable cells in the range of 80%–90%)	+ (Viable cells in the range of 80%–90%)	++ (Viable cells in the range of 50%–60%)	33 ^o C	80 to 90	80 to 90	80 to 90	80 to 90	80 to 90	80 to 90
